Like-named read-outs stand apart in the source and are kept apart here.
Assays:
Staphylococcus aureus [1] = experiment: filter-paper disk agar diffusion (Kirby-Bauer) antibacterial activity; format: cell-based; details: S. aureus; for Diameter of clear zone: filter disk 10 mm
Protocol: The standardized filter-paper disk agar diffusion method was used to determine the antibacterial activity of magnolol and honokiol against Staphylococcus aureus. This method was also well-known as Kirby-Bauer method, and has been widely used to determine the antibacterial activity (see, European Journal of Pharmacology, Junho Park et al, 2004, 496(1-3), 189-195). Briefly, Staphylococcus aureus cells were incubated with brain heart infusion (BHI) broth at 37° C. under anaerobic conditions until they reach the stationary phase. Approximately 1×10^6 bacteria cells were mixed with 7 ml of BHI agar medium containing 0.8% phytoagar and then, poured on the agar plate containing 1.5% phytoagar. The filter-paper discs (10 mm diameter) were treated with magnolol and honokiol at respective test concentrations, and then placed on the BHI agar plate inoculated with the test bacteria. The plate was incubated at 37° C. for 24 hours under anaerobic conditions, and then the antibacterial activity was determined by measuring the size of clear zone (growth inhibition halo) around the disk. The size of clear zone has the functional relation with the logarithmic value of magnolol or honokiol concentration, from which the standard calibration curve could be derived (FIG. 1). The unknown concentration of the test sample can be determined from this standard calibration curve. […] The antibacterial activity was remarkable at 6.25 μg/disk (0.39 mM) for honokiol and 12.5 μg/disk (0.78 mM) for magnolol (Table 1).

Staphylococcus aureus [2] = experiment: Minimum Inhibitory Concentration, two-fold serial dilution; format: cell-based; details: 24 h, read-out: MIC of agents
Protocol: The test was conducted to determine the Minimum Inhibitory Concentrations (MIC) of magnolol and honokiol. Staphylococcus aureus incubated for 24 hours was introduced into 3 ml of brain heart infusion broth, and at the same time, magnolol and honokiol were respectively added thereto, and then incubated for 24 hours at 37° C. under anaerobic conditions. To determine MICs of honokiol and magnolol the two-fold serial dilution method was used. As used herein, MIC is defined as the minimum concentration at which the growth of microorganism is inhibited. As presented in Table 2, it could be confirmed that MICs of magnolol and honokiol for Staphylococcus aureus were 6 μg/ml and 2 μg/ml, respectively. That is, it can be seen that the antibacterial activity of honokiol is higher than that of magnolol.

Staphylococcus aureus [3] = experiment: Minimum Bacteriocidal Concentration / kinetics of bacterial killing; format: cell-based
Protocol: The inhibition of bacterial growth with a certain substance is the result obtained by inhibiting the proliferation of respective cells or killing the cells. […] The following experiment was conducted to determine the Minimum Bacteriocidal Concentration (MBC). First, the same procedures as the determination of MIC were conducted in the liquid culture medium, and then a portion of the culture medium in the test tube in which no proliferation was shown was taken, diluted to remove magnolol and honokiol therefrom, and then incubated on the solid culture medium and observed for the colony formation after 24 hours. At this time, MBC means the minimum value of magnolol or honokiol concentration in the original culture solution in the plate medium on which no colony was produced. To determine MBC of magnolol and honokiol Staphylococcus aureus was used, and magnolol or honokiol was applied at the concentration one, five and 10 times as high as MIC concentration thereof to determine the kinetics of bacterial killing. The survival rate of microbes was determined within 2 hours.

interleukin-8 = interleukin-8 production induced by heat-inactivated Staphylococcus aureus in THP-1 cells (ELISA); format: cell-based, human; details: heat-inactivated S. aureus 100 μg/ml, 48 hours
Protocol: In general, the inflammatory response generated by bacteria or bacterial components is mediated by proinflammatory cytokines. To determine whether magnolol or honokiol can inhibit the inflammatory response generated by Staphylococcus aureus ELISA for interleukin-8 and TNF-alpha was conducted. For this purpose, THP-1 cell line as human monocyte cell line was used. 1×10^6 THP-1 cells were incubated for 14 hours under serum-free conditions, and then treated with heat-inactivated Staphylococcus aureus 100 μg/ml alone or simultaneously with magnolol and honokiol, respectively, which was then incubated for 48 hours. The amounts of interleukin-8 and TNF-alpha secreted into cell culture medium were measured by means of ELISA kit (Genzyme, Minneapolis, Minn.).

TNF-alpha = TNF-alpha production induced by heat-inactivated Staphylococcus aureus in THP-1 cells (ELISA); format: cell-based, human; details: heat-inactivated S. aureus 100 μg/ml, 48 hours
Protocol: In addition, the experiment was conducted to identify the synergistic anti-inflammatory effect when magnolol and honokiol are combined in a certain ratio. The efficacy to inhibit the production of TNF-alpha was examined in cases where the combined ratio of magnolol and honokiol is 1 (7.5 μM):1 (7.5 μM), 1 (5 μM):2 (10 μM), and 2(10 μM):1 (5 μM) or in case of treating with 15 μM of magnolol alone or 15 μM of honokiol alone.

[4] = test system: patients suffering from mild or moderate atopic dermatitis; experiment: clinical evaluation of skin topical preparations in atopic dermatitis (EASI, pruritus); format: in vivo, human; details: applied as 1% cream; 2 and 4 weeks
Protocol: The cosmetic compositions for atopy containing magnolol, honokiol and pimecrolimus, respectively were prepared with the contents of components as listed in the following Table 3, according to the conventional method. In the following Table 3, the control group is for the skin topical preparation with no antibacterial and anti-inflammatory substance, and the test groups 1, 2 and 3 are for the cosmetic compositions for skin topical use to treat atopy containing magnolol, honokiol and pimecrolimus, respectively.
To prepare the skin topical preparation purified water, glycerin and butylene glycol were mixed and dissolved at 70° C. (aqueous part), and the remaining components except for the three components and trimethanolamine were dissolved at 70° C. (oil part). The oil part was added to the aqueous part and stirred with a homomixer (from Tokushu Kika Kogyo, Co., Ltd. In Japan) to induce the first emulsification to which trimethanolamine was finally added. […]
1) The symptoms and extent of atopic dermatitis were objectively determined using EASI (Eczema Area Severity Index) as follows, before treatment and 2 and 4 weeks after treatment. […]
EASI score and pruritus score were compared and evaluated by applying Kruskall-Wallis one-way ANOVA method as the basic statistical method before treatment and 2 and 4 weeks after treatment. […]

Row | SMILES | Diameter of clear zone (Staphylococcus aureus [1]; 6.25 mg/disk (footnote a)) | Diameter of clear zone (Staphylococcus aureus [1]; 12.5 mg/disk (footnote a)) | Diameter of clear zone (Staphylococcus aureus [1]; 25 mg/disk (footnote a)) | Diameter of clear zone (Staphylococcus aureus [1]; 50 mg/disk (footnote a)) | amount at which the antibacterial activity was remarkable (Staphylococcus aureus [1]; disk diffusion) | concentration at which the antibacterial activity was remarkable (Staphylococcus aureus [1]; disk diffusion, printed in brackets after μg/disk) | MIC (Staphylococcus aureus [2]) | concentration at which Staphylococcus aureus was completely exterminated within 10 minutes (Staphylococcus aureus [3]) | concentration at which Staphylococcus aureus was completely exterminated within 10 minutes (Staphylococcus aureus [3]; printed in brackets after μg/ml) | production of interleukin-8 induced by Staphylococcus aureus (interleukin-8) | production of TNF-alpha induced by Staphylococcus aureus (TNF-alpha) | pruritus accompanied by atopic dermatitis (visual analog scale) [4]
1 | CC[C@H]1OC(=O)[C@H](C)[C@@H](O[C@H]2C[C@@](C)(OC)[C@@H](O)[C@H](C)O2)[C@H](C)[C@@H](O[C@@H]2O[C@H](C)C[C@H](N(C)C)[C@H]2O)[C@](C)(O)C[C@@H](C)C(=O)[C@H](C)[C@@H](O)[C@]1(C)O [Erythromycin, reference compound] | 35 ± 2.2^c mm | 42 ± 3.8^c mm | 45 ± 2.5^c mm | 48 ± 5^c mm |  |  |  |  |  |  |  | 
2 | C=CCc1ccc(O)c(-c2cc(CC=C)ccc2O)c1 [Magnolol, 5,5′-di-2-propenyl-1,1′-biphenyl-2,2′-diol] |  | 11 ± 0.4^c mm | 15 ± 0.2^c mm | 18 ± 0.2^c mm | 12.5 μg/disk | 0.78 mM | 6 µg/mL | 45 µg/mL | 169.2 µM | reduced | reduced | significantly improved
